Measured values reported in ChEMBL document CHEMBL6114992, “Design, synthesis, biological evaluation, and mechanism of action of new pyrazines as anticancer agents in vitro and in vivo” (Bioorg Med Chem, 2025).
Blank lines part the entries; values can stand above or below the compound they belong to. Active and inactive are the calls of the source. The rule behind the calls is not given here.

Assays:
THP-1 [1] = assay: Induction of apoptosis in human THP-1 cells assessed as necrotic cells at 0.5 uM incubated for 48 hrs by Annexin V-FITC/PI staining based flow cytometry (reference value: 2.48 %); assay type: functional
THP-1 [2] = assay: Antiproliferative activity against human THP-1 cells assessed as inhibition of cell growth incubated for 72 hrs by MTT assay; assay type: functional, cell-based; conditions: THP-1, 72 h
THP-1 [3] = assay: Induction of apoptosis in human THP-1 cells assessed as viable cells at 2.5 uM incubated for 48 hrs by Annexin V-FITC/PI staining based flow cytometry (reference value: 96.33 %); assay type: functional; conditions: read-out: Activity
SK-OV-3 [4] = assay: Induction of apoptosis in human SK-OV-3 cells assessed as early apoptotic cells at 1 uM incubated for 48 hrs by Annexin V-FITC/PI staining based flow cytometry (reference value: 0.08 %); assay type: functional
[5] = Antiproliferative activity against human SK-OV-3/Taxol cells assessed as inhibition of cell growth incubated for 72 hrs by MTT assay; assay type: functional, cell-based; conditions: SK-OV-3, 72 h
THP-1 [6] = assay: Induction of apoptosis in human THP-1 cells assessed as change in mitochondrial membrane potential at 0.5 uM incubated for 48 hrs by JC-1 staining based flow cytometry (reference value: 5.15 %); assay type: functional
SK-OV-3 [7] = assay: Induction of apoptosis in human SK-OV-3 cells assessed as early apoptotic cells at 5 uM incubated for 48 hrs by Annexin V-FITC/PI staining based flow cytometry (reference value: 0.08 %); assay type: functional
SK-OV-3 [8] = assay: Induction of apoptosis in human SK-OV-3 cells assessed as necrotic cells at 2.5 uM incubated for 48 hrs by Annexin V-FITC/PI staining based flow cytometry (reference value: 4.45 %); assay type: functional
[9] = target: Signal transducer and activator of transcription 3 (Homo sapiens) (UniProt P40763); assay: Inhibition of STAT3 phosphorylation in human KG-1 cells at 0.5 to 2.5 uM incubated for 48 hrs by Western blot analysis; assay type: cell-based; conditions: dose 0.5-2.5 µM
Chain of Signal transducer and activator of transcription 3 (Homo sapiens) (P40763 whole entry): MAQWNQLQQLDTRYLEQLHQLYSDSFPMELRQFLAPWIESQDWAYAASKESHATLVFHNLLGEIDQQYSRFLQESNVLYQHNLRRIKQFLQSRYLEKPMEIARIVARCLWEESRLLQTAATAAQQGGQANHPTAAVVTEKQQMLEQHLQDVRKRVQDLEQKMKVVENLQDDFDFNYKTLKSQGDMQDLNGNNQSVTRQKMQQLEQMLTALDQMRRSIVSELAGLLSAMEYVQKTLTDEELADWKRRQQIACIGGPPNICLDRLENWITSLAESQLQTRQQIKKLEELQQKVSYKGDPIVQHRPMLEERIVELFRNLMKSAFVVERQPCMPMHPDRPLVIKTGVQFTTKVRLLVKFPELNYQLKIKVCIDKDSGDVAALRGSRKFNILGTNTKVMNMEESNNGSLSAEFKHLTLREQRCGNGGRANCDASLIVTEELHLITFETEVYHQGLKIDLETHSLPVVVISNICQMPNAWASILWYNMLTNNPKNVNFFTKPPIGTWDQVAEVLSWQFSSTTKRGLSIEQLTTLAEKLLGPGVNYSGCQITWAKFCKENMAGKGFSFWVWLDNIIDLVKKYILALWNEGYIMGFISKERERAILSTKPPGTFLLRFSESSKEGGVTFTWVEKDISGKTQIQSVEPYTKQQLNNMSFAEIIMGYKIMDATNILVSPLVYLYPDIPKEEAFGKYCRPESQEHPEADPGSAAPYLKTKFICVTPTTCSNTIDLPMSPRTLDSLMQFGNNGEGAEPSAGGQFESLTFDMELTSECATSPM

U-937 = assay: Antiproliferative activity against human U-937 cells assessed as inhibition of cell growth incubated for 72 hrs by MTT assay; assay type: functional, cell-based; conditions: U-937, 72 h
THP-1 [10] = assay: Induction of apoptosis in human THP-1 cells assessed as early apoptotic cells at 2.5 uM incubated for 48 hrs by Annexin V-FITC/PI staining based flow cytometry (reference value: 0.45 %); assay type: functional
KG-1 = assay: Antiproliferative activity against human KG-1 cells assessed as inhibition of cell growth incubated for 72 hrs by MTT assay; assay type: functional, cell-based; conditions: KG-1, 72 h
SK-OV-3 [11] = assay: Antiproliferative activity against human SK-OV-3 cells assessed as inhibition of cell growth incubated for 72 hrs by MTT assay; assay type: functional, cell-based; conditions: SK-OV-3, 72 h
THP-1 [12] = assay: Induction of apoptosis in human THP-1 cells assessed as change in mitochondrial membrane potential at 2.5 uM incubated for 48 hrs by JC-1 staining based flow cytometry (reference value: 5.15 %); assay type: functional
SK-OV-3 [13] = assay: Induction of apoptosis in human SK-OV-3 cells assessed as late apoptotic cells at 1 uM incubated for 48 hrs by Annexin V-FITC/PI staining based flow cytometry (reference value: 4.51 %); assay type: functional
THP-1 [14] = assay: Induction of apoptosis in human THP-1 cells assessed as late apoptotic cells at 2.5 uM incubated for 48 hrs by Annexin V-FITC/PI staining based flow cytometry (reference value: 0.74 %); assay type: functional
SK-OV-3 [15] = assay: Induction of apoptosis in human SK-OV-3 cells assessed as change in mitochondrial membrane potential at 5 uM incubated for 48 hrs by JC-1 staining based flow cytometry (reference value: 5.34 %); assay type: functional
THP-1 [16] = assay: Induction of apoptosis in human THP-1 cells assessed as late apoptotic cells at 0.5 uM incubated for 48 hrs by Annexin V-FITC/PI staining based flow cytometry (reference value: 0.74 %); assay type: functional
SK-OV-3 [17] = assay: Induction of apoptosis in human SK-OV-3 cells assessed as necrotic cells at 5 uM incubated for 48 hrs by Annexin V-FITC/PI staining based flow cytometry (reference value: 4.45 %); assay type: functional
THP-1 [18] = assay: Induction of apoptosis in human THP-1 cells assessed as necrotic cells at 2.5 uM incubated for 48 hrs by Annexin V-FITC/PI staining based flow cytometry (reference value: 2.48 %); assay type: functional
SK-OV-3 [19] = assay: Induction of apoptosis in human SK-OV-3 cells assessed as viable cells at 1 uM incubated for 48 hrs by Annexin V-FITC/PI staining based flow cytometry (reference value: 90.97 %); assay type: functional; conditions: read-out: Activity
SK-OV-3 [20] = assay: Induction of apoptosis in human SK-OV-3 cells assessed as viable cells at 5 uM incubated for 48 hrs by Annexin V-FITC/PI staining based flow cytometry (reference value: 90.97 %); assay type: functional; conditions: read-out: Activity
THP-1 [21] = assay: Induction of apoptosis in human THP-1 cells assessed as viable cells at 0.5 uM incubated for 48 hrs by Annexin V-FITC/PI staining based flow cytometry (reference value: 96.33 %); assay type: functional; conditions: read-out: Activity
THP-1 [22] = assay: Induction of apoptosis in human THP-1 cells assessed as early apoptotic cells at 0.5 uM incubated for 48 hrs by Annexin V-FITC/PI staining based flow cytometry (reference value: 0.45 %); assay type: functional
THP-1 [23] = assay: Induction of apoptosis in human THP-1 cells assessed as early apoptotic cells at 1 uM incubated for 48 hrs by Annexin V-FITC/PI staining based flow cytometry (reference value: 0.45 %); assay type: functional
THP-1 [24] = assay: Induction of apoptosis in human THP-1 cells assessed as necrotic cells at 1 uM incubated for 48 hrs by Annexin V-FITC/PI staining based flow cytometry (reference value: 2.48 %); assay type: functional
THP-1 [25] = assay: Induction of apoptosis in human THP-1 cells assessed as change in mitochondrial membrane potential at 1 uM incubated for 48 hrs by JC-1 staining based flow cytometry (reference value: 5.15 %); assay type: functional
SK-OV-3 [26] = assay: Induction of apoptosis in human SK-OV-3 cells assessed as change in mitochondrial membrane potential at 2.5 uM incubated for 48 hrs by JC-1 staining based flow cytometry (reference value: 5.34 %); assay type: functional
[27] = target: Signal transducer and activator of transcription 3 (Homo sapiens) (UniProt P40763); assay: Inhibition of STAT3 phosphorylation in human THP-1 cells at 0.5 to 2.5 uM incubated for 48 hrs by Western blot analysis; assay type: cell-based; conditions: dose 0.5-2.5 µM
THP-1 [28] = assay: Induction of apoptosis in human THP-1 cells assessed as viable cells at 1 uM incubated for 48 hrs by Annexin V-FITC/PI staining based flow cytometry (reference value: 96.33 %); assay type: functional; conditions: read-out: Activity
SK-OV-3 [29] = assay: Induction of apoptosis in human SK-OV-3 cells assessed as late apoptotic cells at 5 uM incubated for 48 hrs by Annexin V-FITC/PI staining based flow cytometry (reference value: 4.51 %); assay type: functional
THP-1 [30] = assay: Induction of apoptosis in human THP-1 cells assessed as late apoptotic cells at 1 uM incubated for 48 hrs by Annexin V-FITC/PI staining based flow cytometry (reference value: 0.74 %); assay type: functional
SK-OV-3 [31] = assay: Induction of apoptosis in human SK-OV-3 cells assessed as necrotic cells at 1 uM incubated for 48 hrs by Annexin V-FITC/PI staining based flow cytometry (reference value: 4.45 %); assay type: functional
SK-OV-3 [32] = assay: Induction of apoptosis in human SK-OV-3 cells assessed as viable cells at 2.5 uM incubated for 48 hrs by Annexin V-FITC/PI staining based flow cytometry (reference value: 90.97 %); assay type: functional; conditions: read-out: Activity

IC50 (THP-1 [2]): 1520 nM
inhibition [9]: Active
IC50 (U-937): 1730 nM
IC50 (SK-OV-3 [11]): 1390 nM
inhibition [27]: Active
Compound: Cc1nccnc1C(=O)/C=C/c1cccc(C#N)c1
Activity (THP-1 [1]): 1.78%
viability at 2.5 µM (THP-1 [3]): 77.8%
Activity (SK-OV-3 [4]): 1.09%
IC50 [5]: 1420 nM
Activity (THP-1 [6]): 6.42%
Activity (SK-OV-3 [7]): 2.19%
Activity (SK-OV-3 [8]): 9.29%
Activity (THP-1 [10]): 15.05%
IC50 (KG-1): 1790 nM
Activity (THP-1 [12]): 29.42%
Activity (SK-OV-3 [13]): 21.04%
Activity (THP-1 [14]): 4.82%
Activity (SK-OV-3 [15]): 53.8%
Activity (THP-1 [16]): 1.46%
Activity (SK-OV-3 [17]): 9.68%
Activity (THP-1 [18]): 2.27%
viability at 1 µM (SK-OV-3 [19]): 72.4%
viability at 5 µM (SK-OV-3 [20]): 22.5%
viability at 0.5 µM (THP-1 [21]): 93.3%
Activity (THP-1 [22]): 3.41%
Activity (THP-1 [23]): 3.12%
Activity (THP-1 [24]): 2.24%
Activity (THP-1 [25]): 7.94%
Activity (SK-OV-3 [26]): 18.87%
viability at 1 µM (THP-1 [28]): 92.7%
Activity (SK-OV-3 [29]): 65.66%
Activity (THP-1 [30]): 1.94%
Activity (SK-OV-3 [31]): 5.49%
viability at 2.5 µM (SK-OV-3 [32]): 63.3%

IC50 (THP-1 [2]): 600 nM
inhibition [9]: Active
IC50 (U-937): 690 nM
IC50 (SK-OV-3 [11]): 1310 nM
inhibition [27]: Active
Compound: CCc1nccnc1C(=O)/C=C/c1ccccn1
Activity (THP-1 [1]): 2.41%
viability at 2.5 µM (THP-1 [3]): 81.9%
Activity (SK-OV-3 [4]): 0.37%
IC50 [5]: 1240 nM
Activity (THP-1 [6]): 6.52%
Activity (SK-OV-3 [7]): 1.46%
Activity (SK-OV-3 [8]): 9.16%
Activity (THP-1 [10]): 13.09%
IC50 (KG-1): 630 nM
Activity (THP-1 [12]): 26.66%
Activity (SK-OV-3 [13]): 19.41%
Activity (THP-1 [14]): 3.26%
Activity (SK-OV-3 [15]): 31.28%
Activity (THP-1 [16]): 1.53%
Activity (SK-OV-3 [17]): 8.84%
Activity (THP-1 [18]): 1.77%
viability at 1 µM (SK-OV-3 [19]): 71.2%
viability at 5 µM (SK-OV-3 [20]): 44.6%
viability at 0.5 µM (THP-1 [21]): 93.5%
Activity (THP-1 [22]): 2.51%
Activity (THP-1 [23]): 4.75%
Activity (THP-1 [24]): 1.94%
Activity (THP-1 [25]): 9.01%
Activity (SK-OV-3 [26]): 17.88%
viability at 1 µM (THP-1 [28]): 91.6%
Activity (SK-OV-3 [29]): 45.06%
Activity (THP-1 [30]): 1.73%
Activity (SK-OV-3 [31]): 8.98%
viability at 2.5 µM (SK-OV-3 [32]): 67%
